Where “and” joins values, the source holds several entries; their conditions need not be identical. Identical values can stand only once. Inconclusive results and toxic doses are left out.
Tested on: L1210 leukemia ip in BDF1 mice, survival T/C
Assay: NCI In Vivo Anticancer Drug Screen. Data for tumor model L1210 Leukemia (intraperitoneal) in B6D2F1 (BDF1) mice
Conditions: endpoint: mean survival time, higher = longer survival
Procedure, shortened: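 Tumor cells were implanted, animals were treated, and survival was followed. The result divides the treated measurement by the vehicle-control measurement.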

[1] = dose: 100.0 mg/kg/injection, schedule: Q04DX003 (ip), vehicle: saline
[2] = dose: 200.0 mg/kg/injection, schedule: Q01DX009 (ip), vehicle: saline with Tween-80
[3] = dose: 200.0 mg/kg/injection, schedule: Q04DX003 (ip), vehicle: saline
[4] = dose: 400.0 mg/kg/injection, schedule: Q04DX003 (ip), vehicle: saline
[5] = dose: 100.0 mg/kg/injection, schedule: Q04DX002 (ip), vehicle: Klucel (hydroxypropylcellulose) (HPC)
[6] = dose: 200.0 mg/kg/injection, schedule: Q04DX002 (ip), vehicle: Klucel (hydroxypropylcellulose) (HPC)
[7] = dose: 100.0 mg/kg/injection, schedule: Q01DX009 (ip), vehicle: saline
[8] = dose: 200.0 mg/kg/injection, schedule: Q01DX009 (ip), vehicle: saline
[9] = dose: 100.0 mg/kg/injection, schedule: Q04DX003 (ip), vehicle: saline with Tween-80
[10] = dose: 200.0 mg/kg/injection, schedule: Q04DX003 (ip), vehicle: saline with Tween-80
[11] = dose: 400.0 mg/kg/injection, schedule: Q04DX003 (ip), vehicle: saline with Tween-80
[12] = dose: 100.0 mg/kg/injection, schedule: Q04DX003 (ip), vehicle: Klucel (hydroxypropylcellulose) (HPC)
[13] = dose: 200.0 mg/kg/injection, schedule: Q04DX003 (ip), vehicle: Klucel (hydroxypropylcellulose) (HPC)
[14] = dose: 50.0 mg/kg/injection, schedule: Q01DX009 (ip), vehicle: saline
[15] = dose: 100.0 mg/kg/injection, schedule: Q01DX001 (ip), vehicle: carboxymethylcellulose (CMC)
[16] = dose: 400.0 mg/kg/injection, schedule: Q01DX001 (ip), vehicle: carboxymethylcellulose (CMC)
[17] = dose: 100.0 mg/kg/injection, schedule: Q01DX009 (ip), vehicle: Klucel (hydroxypropylcellulose) (HPC)
[18] = dose: 25.0 mg/kg/injection, schedule: Q01DX009 (ip), vehicle: Klucel (hydroxypropylcellulose) (HPC)

O=C(O)/C(Br)=C/C(=O)c1ccccc1
T/C (dose: 75.0 mg/kg/injection, schedule: Q01DX001 (ip), vehicle: steriod suspending solution): 106 % of control
T/C (dose: 300.0 mg/kg/injection, schedule: Q01DX001 (ip), vehicle: steriod suspending solution): 109 % of control

CN(Cc1cnc2cc(N)[nH]c(=O)c2n1)c1ccc(C(=O)NC(CCC(=O)O)C(=O)O)cc1 (configuration not stated)
T/C (dose: 100.0 mg/kg/injection, schedule: Q04DX002 (ip), vehicle: water): 94 % of control
T/C (dose: 200.0 mg/kg/injection, schedule: Q04DX002 (ip), vehicle: water): 99 % of control
T/C (dose: 400.0 mg/kg/injection, schedule: Q04DX002 (ip), vehicle: water): 118 % of control

CCC(=O)/C=C/C1C(C)=CCCC1(C)C (configuration not stated)
T/C (dose: 100.0 mg/kg/injection, schedule: Q01DX009 (ip), vehicle: saline with Tween-80): 86 % of control
T/C [1]: 100 % of control
T/C [2]: 90 % of control
T/C [3]: 102 % of control
T/C [4]: 100 % of control

ClCC1=NC2C(Cl)C(Cl)C(Cl)C(Cl)C2N1 (configuration not stated)
T/C [5]: 111 % of control
T/C [6]: 100 % of control
T/C (dose: 400.0 mg/kg/injection, schedule: Q04DX002 (ip), vehicle: Klucel (hydroxypropylcellulose) (HPC)): 100 % of control

C1CC2(CCN1)SSC1(CCNCC1)S2
T/C [7]: 113 % of control
T/C [1]: 114 % of control
T/C [8]: 103 % of control
T/C [3]: 112 % of control
T/C [4]: 96 % of control

CNc1cc([N+](=O)[O-])ccc1OCc1ccccc1
T/C (dose: 75.0 mg/kg/injection, schedule: Q01DX009 (ip), vehicle: saline with Tween-80): 87 % of control
T/C [9]: 89 % of control
T/C (dose: 150.0 mg/kg/injection, schedule: Q01DX009 (ip), vehicle: saline with Tween-80): 87 % of control
T/C [10]: 92 % of control
T/C (dose: 300.0 mg/kg/injection, schedule: Q01DX009 (ip), vehicle: saline with Tween-80): 91 % of control
T/C [11]: 101 % of control

CCCCn1cc(COCC)c(=O)[nH]c1=O
T/C (dose: 50.0 mg/kg/injection, schedule: Q04DX002 (ip), vehicle: Klucel (hydroxypropylcellulose) (HPC)): 98 % of control
T/C [5]: 102 % of control
T/C [6]: 98 % of control

COc1ccc2[nH]c3c(C)cc(C=O)c(C)c3c2c1
T/C (dose: 100.0 mg/kg/injection, schedule: Q01DX001 (ip), vehicle: other): 101 % of control
T/C [9]: 102 % of control
T/C (dose: 200.0 mg/kg/injection, schedule: Q01DX001 (ip), vehicle: other): 95 % of control
T/C [10]: 101 % of control
T/C (dose: 400.0 mg/kg/injection, schedule: Q01DX001 (ip), vehicle: other): 91 % of control
T/C [11]: 96 % of control

CN(C)CCC(C)(N)c1cccc2ccccc12 (configuration not stated)
T/C [1]: 113 % of control
T/C [3]: 107 % of control

C/C=C(/C(=O)O)c1ccccc1
T/C [12]: 109 % of control
T/C [13]: 88 % of control
T/C (dose: 400.0 mg/kg/injection, schedule: Q04DX003 (ip), vehicle: Klucel (hydroxypropylcellulose) (HPC)): 94 % of control

CC(=N)c1c(O)cc(C)oc1=O
T/C [9]: 108 % of control
T/C [10]: 101 % of control
T/C [11]: 92 % of control

CC1=NCCC[N-]CC[N-]CCCN=C1C.[Ni+2].[O-][Cl+3]([O-])([O-])O
T/C (dose: 100.0 mg/kg/injection, schedule: Q04DX002 (ip), vehicle: saline): 94 % of control
T/C (dose: 200.0 mg/kg/injection, schedule: Q04DX002 (ip), vehicle: saline): 94 % of control
T/C (dose: 400.0 mg/kg/injection, schedule: Q04DX002 (ip), vehicle: saline): 98 % of control

N#CCCCN1CCCCCC1
T/C (dose: 25.0 mg/kg/injection, schedule: Q01DX009 (ip), vehicle: saline): 98 % of control
T/C (dose: 25.0 mg/kg/injection, schedule: Q04DX003 (ip), vehicle: saline): 101 % of control
T/C [14]: 93 % of control
T/C (dose: 50.0 mg/kg/injection, schedule: Q04DX003 (ip), vehicle: saline): 101 % of control
T/C [1]: 101 % of control

CSc1ccc(N=Cc2ccccc2O)cc1
T/C [15]: 93 % of control
T/C (dose: 200.0 mg/kg/injection, schedule: Q01DX001 (ip), vehicle: carboxymethylcellulose (CMC)): 93 % of control
T/C [16]: 98 % of control

O=C(O)C(CSC(c1ccccc1)(c1ccccc1)c1ccccc1)N=Cc1ccccc1O (configuration not stated)
T/C (dose: 267.0 mg/kg/injection, schedule: Q01DX001 (ip), vehicle: saline): 154 % of control
T/C (dose: 600.0 mg/kg/injection, schedule: Q01DX001 (ip), vehicle: saline): 154 % of control

Cc1cc([N+](=O)[O-])c(NCCOC(=O)c2ccc([N+](=O)[O-])cc2)c([N+](=O)[O-])c1
T/C [17]: 106 % of control
T/C (dose: 200.0 mg/kg/injection, schedule: Q01DX009 (ip), vehicle: Klucel (hydroxypropylcellulose) (HPC)): 112 % of control
T/C (dose: 400.0 mg/kg/injection, schedule: Q01DX009 (ip), vehicle: Klucel (hydroxypropylcellulose) (HPC)): 98 % of control

CCCCCCCCOC(=O)Nc1ccccc1
T/C [18]: 100 % of control
T/C (dose: 50.0 mg/kg/injection, schedule: Q01DX009 (ip), vehicle: Klucel (hydroxypropylcellulose) (HPC)): 94 % of control
T/C [17]: 100 % of control

Cc1cc2oc(=O)c3c(c2c(O)c1CN1CCOCC1)CCCC3
T/C [15]: 96 % of control
T/C [16]: 98 % of control

O=[N+]([O-])c1cc(S(=O)(=O)F)ccc1S
T/C [12]: 102 % of control
T/C [13]: 100 % of control

O=C(NNCN1C(=O)c2ccccc2C1=O)c1ccccc1
T/C [2]: 90 % of control

Cc1cc(C(C)(CC(C)C)c2ccc(O)c(C)c2)ccc1O
T/C (dose: 25.0 mg/kg/injection, schedule: Q01DX009 (ip), vehicle: gum acacia): 96 % of control
T/C (dose: 50.0 mg/kg/injection, schedule: Q01DX009 (ip), vehicle: gum acacia): 98 % of control
T/C (dose: 100.0 mg/kg/injection, schedule: Q01DX009 (ip), vehicle: gum acacia): 93 % of control and 89 % of control
T/C (dose: 100.0 mg/kg/injection, schedule: Q04DX003 (ip), vehicle: gum acacia): 97 % of control
T/C (dose: 200.0 mg/kg/injection, schedule: Q04DX003 (ip), vehicle: gum acacia): 93 % of control
T/C (dose: 400.0 mg/kg/injection, schedule: Q04DX003 (ip), vehicle: gum acacia): 90 % of control

OC1CCSC1 (configuration not stated)
T/C [14]: 95 % of control
T/C [7]: 95 % of control
T/C [8]: 98 % of control

COCCN(/N=N/c1nc[nH]c1C(N)=O)C(C)(C)C
T/C (dose: 50.0 mg/kg/injection, schedule: Q01DX001 (ip), vehicle: water): 100 % of control
T/C (dose: 50.0 mg/kg/injection, schedule: Q04DX003 (ip), vehicle: water): 101 % of control
T/C (dose: 100.0 mg/kg/injection, schedule: Q01DX001 (ip), vehicle: water): 97 % of control
T/C (dose: 100.0 mg/kg/injection, schedule: Q04DX003 (ip), vehicle: water): 101 % of control
T/C (dose: 200.0 mg/kg/injection, schedule: Q01DX001 (ip), vehicle: water): 92 % of control
T/C (dose: 200.0 mg/kg/injection, schedule: Q04DX003 (ip), vehicle: water): 102 % of control
T/C (dose: 400.0 mg/kg/injection, schedule: Q01DX001 (ip), vehicle: water): 97 % of control
T/C (dose: 400.0 mg/kg/injection, schedule: Q04DX003 (ip), vehicle: water): 96 % of control

O=C(O)C(Cc1cnc[nH]1)Nc1nc(NC(Cc2cnc[nH]2)C(=O)O)[nH]c(=O)n1 (configuration not stated)
T/C (dose: 6.25 mg/kg/injection, schedule: Q01DX009 (ip), vehicle: Klucel (hydroxypropylcellulose) (HPC)): 101 % of control
T/C (dose: 12.5 mg/kg/injection, schedule: Q01DX009 (ip), vehicle: Klucel (hydroxypropylcellulose) (HPC)): 108 % of control
T/C [18]: 115 % of control

COC1OC(Cn2cc(-c3ccccc3)nn2)C(OC(C)=O)C(OC(C)=O)C1OC(C)=O (configuration not stated)
T/C (dose: 100.0 mg/kg/injection, schedule: Q01DX005 (ip), vehicle: saline): 100 % of control
T/C (dose: 200.0 mg/kg/injection, schedule: Q01DX005 (ip), vehicle: saline): 96 % of control

Source: PubChem BioAssay AID248 (DTP/NCI, 2004)
